Laboratory results taken from US11844779B2, “PKC-Delta-I inhibitor formulations and uses thereof” (University of South Florida, priority 2016, dated 2023).

Tests used:
PKCδI [1] = biological target: T1, PKCδI (Mus musculus, UniProt P28867); test: Western blot on mature adipocytes (inhibitors added day 6 of differentiation); assay type: cell-based; settings: for phosphorylation of myelin basic protein (PKCδI substrate) / cleavage and release of the PKCδI catalytic domain: mature adipocytes, inhibitors added day 6 of differentiation, 24 h; for cleavage and release of the PKCδI catalytic domain: C-terminal PKCδ antibody
T1 construct: endogenous in cells; host or cells: 3T3L1 (differentiating pre-adipocytes, day 1; mature adipocytes, day 6)
Method: Next, compounds 5139627, 5320091, 72950115, 28578828, 61397826 and 43844983 were tested on mature adipocytes. The inhibitors were added on day 6 of differentiation when the adipocytes are lipid laden. After 24 h, the cells were harvested and western blot analysis was performed on whole cell lysates.

obese adipocytes = test: WST-1 assay for cell viability; assay type: cell-based; settings: 10 nM
Method: A WST-1 assay performed using obese adipocytes treated with 513627 to evaluate toxicity of compound 513627. Briefly, obese adipocytes were treated with 10 nM of compound 513627 and a WST-1 assay for cell viability was performed. FIG. 5 represents data from four experiments.

PKCδI [2] = biological target: T2, PKCδI (Homo sapiens, UniProt Q05655); test: PKC kinase activity kit, colorimetric assay (ENZO); assay type: biochemical; settings: run in triplicate
Method: (§1) Briefly, a Protein Kinase C (PKC) kinase activity kit was used and a colorimetric assay (ENZO; run in triplicate) was performed. Relative kinase activity was calculated as (average absorbance of PKC isozyme−Average absorbance of blank)/quantity of pure kinase used per assay.

other PKCs = test: PKC kinase activity kit, colorimetric assay (ENZO), other PKC isozymes; assay type: biochemical; settings: run in triplicate
Method: as §1

PKCδI [3] = biological target: T2, PKCδI; test: In vitro kinase assay with recombinant PKCδI and SC35 as substrate; assay type: biochemical; settings: 10 nM, 30 min incubation prior to assay, phosphatidyl serine and ATP
Method: Next, in vitro kinase assays were performed with recombinant proteins PKCδI and SC35 (as substrate) in a kinase buffer containing phosphatidyl serine and ATP; with and without 10 nM 5139627, 28578828 (30 min incubation prior to assay).

Bxl-xS and caspase9a = test: PCR based expression of pro-apoptotic variants in adipocytes from obese donor; assay type: cell-based, human; settings: about 10 nM, about 24 h
From the text: (§2) The C-terminal fragment of PKCδI phosphorylates its substrates that mediate expression of pro-apoptotic proteins. For a functional read-out, an assay was designed to measure: (1) Bcl-xL switching to its pro-apoptotic variant Bcl-xS and (2) Caspase9b switching to its pro-apoptotic variant caspase 9a. Briefly, adipocytes were freshly isolated from human visceral adipose tissue of lean and obese donors (IRB #20295; lean BMI 22.1 and 23; obese BMI 43.7 and 44.3; non-diabetic, nonsmokers, non-cancer).
Additionally, adipocytes from the obese donor were treated with about 10 nM of NP627 for about 24 h (n=3). Expression of Bxl-xL, Bxl-xS, caspase9a, andβ-actin (control) were analyzed using a PCR based technique (n=3).

PKCδI [4] = biological target: T2, PKCδI; test: Western blot on adipocytes from obese donor, PKCδI cleavage; assay type: cell-based; parameters: adipocytes from the obese donor were treated with about 10-100 nM NP627; endogenous in cells; host or cells: primary human adipocytes from visceral adipose tissue of an obese donor; settings: about 10-100 nM, about 24 h
From the text: as §2
(§3) Additionally, adipocytes from the obese donor were treated with about 10-100 nM NP627 (compound 513627) for about 24 h (n=3). Expression of PKCδI_F, PKCδI_C, PKCδVIII, and β-Actin (control) were analyzed using western blotting.

PKCδVIII = biological target: T3, PKCδVIII (Homo sapiens, UniProt Q05655); test: Western blot on adipocytes from obese donor, PKCδVIII; assay type: cell-based; settings: about 10-100 nM, about 24 h
T3 construct: adipocytes from the obese donor were treated with about 10-100 nM NP627; endogenous in cells; host or cells: primary human adipocytes from visceral adipose tissue of an obese donor
From the text: as §2, §3

PKCδI [5] = biological target: T1, PKCδI; test: Western blot on differentiating 3T3L1 cells (inhibitors added day 1 of differentiation); assay type: cell-based; settings: 3T3L1, inhibitors added day 1 of differentiation, 24 h; for cleavage and release of the PKCδI catalytic domain: C-terminal PKCδ antibody
Method: The compounds identified from the docking modeling were tested for their ability to inhibit PKCδI. 3T3L1 cells were plated in 60 mm dishes and differentiated. PKCδI regulates cell cycle during differentiation of pre-adipocytes to adipocytes. The inhibitors were added on day 1 of differentiation during mitotic clonal expansion when PKCδI expression is high (18). After 24 h, the cells were harvested and western blot analysis was performed on whole cell lysates.

[6] = both pre-adipocytes and mature adipocytes

T1 sequence (P28867 whole entry, the tested form may be a part): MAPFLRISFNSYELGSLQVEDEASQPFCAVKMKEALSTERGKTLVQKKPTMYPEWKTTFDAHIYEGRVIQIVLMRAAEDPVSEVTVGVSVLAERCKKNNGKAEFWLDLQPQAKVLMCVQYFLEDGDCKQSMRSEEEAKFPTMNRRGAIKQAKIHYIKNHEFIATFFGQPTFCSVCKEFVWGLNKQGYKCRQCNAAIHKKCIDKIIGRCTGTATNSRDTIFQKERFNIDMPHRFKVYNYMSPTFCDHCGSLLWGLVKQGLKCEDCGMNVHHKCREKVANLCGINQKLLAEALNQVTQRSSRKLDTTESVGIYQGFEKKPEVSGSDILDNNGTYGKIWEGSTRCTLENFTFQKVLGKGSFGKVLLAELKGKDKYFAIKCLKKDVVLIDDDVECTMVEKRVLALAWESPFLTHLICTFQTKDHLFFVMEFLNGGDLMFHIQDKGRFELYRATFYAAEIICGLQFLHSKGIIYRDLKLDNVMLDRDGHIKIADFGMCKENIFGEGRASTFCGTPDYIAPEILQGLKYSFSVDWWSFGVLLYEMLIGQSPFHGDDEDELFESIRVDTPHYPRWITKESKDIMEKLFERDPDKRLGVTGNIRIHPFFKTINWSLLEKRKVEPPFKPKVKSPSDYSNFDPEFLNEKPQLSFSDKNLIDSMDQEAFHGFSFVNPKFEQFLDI
T2 sequence (Q05655 whole entry): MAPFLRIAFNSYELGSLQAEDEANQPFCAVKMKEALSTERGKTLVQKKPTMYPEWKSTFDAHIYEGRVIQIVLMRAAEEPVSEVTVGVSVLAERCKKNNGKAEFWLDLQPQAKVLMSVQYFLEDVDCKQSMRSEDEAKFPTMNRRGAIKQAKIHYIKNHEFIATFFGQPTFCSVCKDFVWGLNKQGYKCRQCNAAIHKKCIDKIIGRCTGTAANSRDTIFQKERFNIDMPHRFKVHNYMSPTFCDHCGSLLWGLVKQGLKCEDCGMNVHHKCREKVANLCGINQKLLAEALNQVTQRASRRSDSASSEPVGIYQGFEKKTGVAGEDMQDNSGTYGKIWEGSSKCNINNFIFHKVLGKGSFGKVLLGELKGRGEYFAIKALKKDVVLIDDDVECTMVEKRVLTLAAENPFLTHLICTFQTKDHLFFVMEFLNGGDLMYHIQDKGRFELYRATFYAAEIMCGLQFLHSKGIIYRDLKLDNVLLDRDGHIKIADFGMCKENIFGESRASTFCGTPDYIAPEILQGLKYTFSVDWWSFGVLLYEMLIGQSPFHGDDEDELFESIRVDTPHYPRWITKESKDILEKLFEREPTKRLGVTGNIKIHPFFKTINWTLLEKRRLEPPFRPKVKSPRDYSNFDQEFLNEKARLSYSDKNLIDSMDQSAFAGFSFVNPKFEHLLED
T3 sequence (Q05655 1-707 isoform Q05655-2): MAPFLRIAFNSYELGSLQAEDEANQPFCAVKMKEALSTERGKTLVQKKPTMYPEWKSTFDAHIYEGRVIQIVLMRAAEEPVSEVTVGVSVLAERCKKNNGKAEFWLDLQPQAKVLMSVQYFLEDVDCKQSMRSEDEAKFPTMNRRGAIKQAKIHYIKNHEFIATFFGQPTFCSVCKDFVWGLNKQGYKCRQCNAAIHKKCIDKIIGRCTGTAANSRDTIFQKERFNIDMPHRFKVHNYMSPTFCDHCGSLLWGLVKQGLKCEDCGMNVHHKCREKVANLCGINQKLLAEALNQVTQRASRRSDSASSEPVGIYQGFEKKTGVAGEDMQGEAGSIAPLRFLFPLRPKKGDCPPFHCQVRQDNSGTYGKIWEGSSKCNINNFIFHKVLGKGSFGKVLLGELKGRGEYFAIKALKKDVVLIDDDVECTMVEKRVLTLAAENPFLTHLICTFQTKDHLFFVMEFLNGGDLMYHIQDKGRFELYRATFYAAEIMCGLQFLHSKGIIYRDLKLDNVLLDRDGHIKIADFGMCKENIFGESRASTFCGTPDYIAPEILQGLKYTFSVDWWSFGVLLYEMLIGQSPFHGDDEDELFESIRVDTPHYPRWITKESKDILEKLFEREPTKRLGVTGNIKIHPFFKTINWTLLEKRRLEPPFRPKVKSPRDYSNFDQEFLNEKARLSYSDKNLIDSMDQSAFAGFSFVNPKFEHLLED

SMILES | phosphorylation of myelin basic protein (PKCδI substrate) (PKCδI [1]) | cleavage and release of the PKCδI catalytic domain (PKCδI [1]) | cellular toxicity (cell viability) (obese adipocytes) | specificity for PKCδI (relative kinase activity) (PKCδI [2]) | other PKC isozyme activities (other PKCs) | PKCδI activity (PKCδI [3]) | expression of Bxl-xS (Bxl-xS and caspase9a) | expression of caspase9a (Bxl-xS and caspase9a) | cleavage of PKCδI (PKCδI [4]) | PKCδVIII (alternatively spliced variant) (PKCδVIII) | cleavage and release of the PKCδI catalytic domain (PKCδI [5]) | phosphorylation of myelin basic protein (PKCδI substrate) (PKCδI [5]) | inhibition of PKCδI cleavage (PKCδI [1]; [6]) | inhibition of phosphorylation of MBP (PKCδI [1]; [6])
N=C(CCN1C(=O)c2ccccc2C1=O)NNC(=O)CCCC(=O)NNC(=N)CCN1C(=O)c2ccccc2C1=O [compound 5139627, N′~1~,N′~5~-bis[3-(1,3-dioxo-1,3-dihydro-2H-isoindo1-2-yl)propanimidoyl]pentanedihydrazide] | decreased phosphorylation | inhibited the cleavage and release | did not appear to cause cellular toxicity | specificity for PKCδI | not inhibited | specifically inhibit PKCδI activity | decrease expression | decrease expression | specifically inhibits cleavage of PKCδI | not inhibited | inhibit the cleavage and release | – | – | –
CC(C)(O)C(=O)C=Cc1ccc2c(c1)OCO2 [compound 5320091, 1-(1,3-benzodioxol-5-yl)-4-hydroxy-4-methyl-1-penten-3-one] | decreased phosphorylation | inhibited the cleavage and release | – | – | – | – | – | – | – | – | inhibit the cleavage and release | decreased phosphorylation | – | –
OCCNc1cc(-c2cc(CO)ccn2)c2cc[nH]c2n1 [compound 28578828, 2-({4-[4-(hydroxymethyl)pyridin-2-yl]-1H-pyrrolo[2,3-b]pyridin-6-yl}amino)ethanol] | decreased phosphorylation | inhibited the cleavage and release | – | – | – | specifically inhibit PKCδI activity | – | – | – | – | inhibit the cleavage and release | decreased phosphorylation | – | –
CN(Cc1cnccn1)C(=O)c1cccc(C#CC(C)(C)O)c1 [compound 43844983, 3-(3-hydroxy-3-methylbut-1-yn-1-yl)-N-methyl-N-(pyrazin-2-ylmethyl)benzamide] | decreased phosphorylation | inhibited the cleavage and release | – | – | – | – | – | – | – | – | inhibit the cleavage and release | decreased phosphorylation | completely inhibit | completely inhibit
Cc1nc2c(c(N(C)C)n1)CCN(C(=O)[C@@H]1C[C@@H](O)CN1)C2 [compound 61397826, (3R,5S)-5-{[4-(dimethylamino)-2-methyl-5,8-dihydropyrido[3,4-d]pyrimidin-7(6H)-yl]carbonyl}-3-pyrrolidinol] | decreased phosphorylation | inhibited the cleavage and release | – | – | – | – | – | – | – | – | inhibit the cleavage and release | decreased phosphorylation | – | –
CCN(C/C=C/c1ccccc1)C(=O)CCc1nc2ccccc2[nH]1 [compound 72950115, 3-(1H-benzimidazol-2-yl)-N-ethyl-N-[(2E)-3-phenylprop-2-en-1-yl]propanamide] | decreased phosphorylation | inhibited the cleavage and release | – | – | – | – | – | – | – | – | inhibit the cleavage and release | decreased phosphorylation | – | –
